# Results taken from US20040132121A1, “Method of identifying antibacterial compounds” (priority 2000, published 2004).
# Where two headings read alike, the source gives them in different places. Where a SMILES comes first, the peptide text is derived from it. Where no end group is shown, it is not given here.
# Assays:
# [1] = target: T1, binding of E. coli α to E. coli β (Escherichia coli, UniProt P0A988); experiment: biochemical; conditions: for inhibition of the binding of α to β: plate inhibition assay as in Example 6, buffer BB14
# T1 construct: made in house
# Method: Recombinantly expressed wild type E. coli α subunit was purified and coated onto 96 well microtitre plates (Falcon flexible plates, Becton Dickinson) at 20 μg/ml in 100 mM Na2CO3, pH9.5 (50 μl/well, 4° C. overnight or 2 h, RT (RT). The plates were washed in WB3 (20 mM Tris (pH 7.5), 0.1 mM EDTA containing 0.05% v/v Tween 20). This buffer was used in all wash steps through out the assay. The plates were then blocked with “blotto” (5% skim milk powder in WB3, 100 μl/well, RT) until required. Immediately before use the plates were washed.
# The purified synthetic peptides and β subunit were diluted in BB14 (20 mM Tris, pH 7.5, 10 mM MgCl2, 0.1 mM EDTA). Purified synthetic peptides with concentrations of 9.3-300 and 1000 μg/ml were allowed to complex with purified wild type β subunit (5 μg/ml) in a 96 well microtitre plate (Sarsted, Adelaide, Australia) pre-treated with “blotto” (30 min, RT). The reaction volume was 120 μl. The β subunit also was incubated in the absence of peptide or in the presence of the α subunit at 76.5 (μg/ml in BB14. All samples were incubated for 1 h (RT). Two 50 μl samples were transferred from each well to a corresponding well of the washed and “blocked” α subunit coated plates, and further incubated for 30 min (RT).
# The plates were washed and treated with rabbit serum raised to the β subunit. The anti-serum was diluted 1:1000 in WB3 containing 10% “blotto”, dispensed at 50 μl/well and incubated for 12 min (RT). The plates were washed again and treated with sheep anti-rabbit Ig-HRP conjugate (Silenus, Melbourne, Australia) diluted 1:1000 in WB3 containing 10% “blotto” (50 μl/well). The plate was incubated for 12 min (RT). After a final washing step, 1 mM 2,2′-azino-bis (3-ethylbenzthiazoline-6-sulfonic acid) was added (110 μl/well). Colour development was assessed at 405 nm using a plate reader (Multiskan Ascent, Labsystems, Sweden).
# For the CMS compounds in the of α:β assays, buffer BB37 replaced buffer BB14. Buffer BB37 contains 10 mM MnCl2 instead of the 10 mM MgCl2 used in BB14. The buffer conditions were changed to improve the reproducibility and sensitivity of the α:β binding assay.
# Compounds from the CMS library were dissolved in DMSO at 1 mg/ml in a 96 well tray format. A corresponding slave plate was prepared by adding 115 μl of BB37. Dissolved compounds (5 μl) from the master plate was added to the corresponding well in slave plates giving a final concentration of 41.7 μg/ml.
# Compounds were assayed for inhibition of the binding of E. coli α to E. coli β as described in Example 13.
# Peptides were assayed for inhibition of the binding of E. coli α to E. coli β as described in Example 6 with the exception that buffer BB37 replaced buffer BB14 in the alpha:beta binding assay. As noted above, BB37 contains 10 mM MnCl2 instead of 10 mM MgCl2 used in BB14. Again, the change in buffer conditions was made to improve the reproducibility and sensitivity of the α:β binding assay.
# [2] = test system: B. subtilis IH 6140; experiment: Inhibition of growth of B. subtilis by peptides (OD620 growth curve); format: cell-based, Bacillus subtilis
# Method: B. subtilis IH 6140 was subcultured from a fresh plate into a 10 ml tube containing 5 ml of Oxoid Mueller-Hinton broth (Oxoid code CM405 Oxoid Manual 7th edition 1995 pg 2-161). This culture was shaken at 120 rpm at 37° C. for 21 h and then diluted in normal saline to 0.5 McFarland Standard (NCCLS Performance standard for Dilution Antimicrobial Susceptibility Testing M7-A4 January 1997). This suspension was further diluted 1:5 in normal saline to form the bacterial starter culture. Peptides were tested at a final concentration of 1 mg/ml in a flat bottom 96 well plate (Nunclon surface, sterile Nalge Nunc International). Wells were prepared by using 100 μl of double strength Mueller-Hinton Broth, an appropriate volume of peptide and the final volume made up to 190 μl. The wells were then inoculated with 10 μl of the starter culture.
# The plate was sealed with a clear adhesive plate seal (Abgene House). It was then placed in a Labsystems Multiskan Ascent spectrophotometer. The plate was incubated at 37° C. with shaking at 120 rpm every alternate 10 seconds. The absorbence at 620 nm was measured every 30 min for 16 h.
# [3] = target: binding of E. coli δ to E. coli β (Escherichia coli, UniProt P0A988); experiment: biochemical; conditions: for inhibition of the binding of δ to β: plate binding assay as in Example 6
# [4] = target: T2, β subunit (Escherichia coli, UniProt P0A988); experiment: Surface plasmon resonance solution affinity analysis (IC50 of free peptide); format: binding, E. coli
# Method: (§1) Reverse phase HPLC purified peptides (10 μg) were reacted with 1 mg biotin-linker (6-(6-((biotinoyl)amino(hexanoyl) amino) hexanoic acid) sulphosuccinimidyl ester; Molecular Probes, Eugene, Oreg.) (20 mg/ml in DMSO) in 75 mM sodium borate (pH8.5) overnight (RT) with rotation. […] Biotinylated peptides that eluted later than the biotin-linker and free peptide, were collected, vacuum dried and then dissolved in water. SPR was conducted on a Biacore 2000 using streptavidin derivitised flow cell surfaces (Biacore). All β subunit and free peptide solutions were prepared in BB14 with 150 mM NaCl.
# For the solution affinity analyses, higher loadings of the biotinylated peptides on the flow cell surfaces, and therefore high RU (700-1000), were established. Loading with peptide 4 generated a negative control surface. […] In all data manipulations, the RU values of this surface was subtracted from the RU values of the test surface. A calibration curve of RU values generated at different concentrations of the β subunit over 10-100 nM was developed for each biotinylated peptide attached to the flow cell surface. To determine the inhibitory effect of free peptide, 100 nM β subunit was pre-incubated for 5 min with different concentrations of free peptide (10 nM to 4.5 μM, in duplicate) to form a complex of β subunit and peptide and then passed over the flow cell surfaces. The amount of free uncomplexed βremaining was determined from the calibration curve. The log of the concentration of the uncomplexed (free) β subunit was plotted against the log concentration of inhibitory peptide.
# [5] = target: T2, β subunit; experiment: biochemical; format: binding, E. coli; conditions: SPR, 1:1 Langmuir model
# Method: as §1
# The data was fitted to the 1:1 Langmuir model by the BioEvaluation software (Biacore).
# [6] = B. subtilis IH 6140, peptide 1 mg/ml, OD620 over 16 h
# [7] = Table 21, NCI compounds, buffer BB14, read-out: IC50 α-binding
# [8] = Table 17, α-coated plate, β 5 μg/ml, buffer BB14, read-out: IC50 α (inhibition of binding of α to β) (converted)
# [9] = Table 20, assayed as in Example 6, read-out: IC50 α:β
# [10] = IC50 δ (inhibition of binding of δ to β), Table 17, δ-coated plate, β 1 μg/ml
# [11] = IC50 b-peptide 1, free peptide with 100 nM β, biotinylated peptide 1 on flow cell surface
# [12] = IC50 b-peptide 14, free peptide with 100 nM β, biotinylated peptide 14 on flow cell surface
# [13] = Table 24, buffer BB37 (10 mM MnCl2), read-out: IC50 α:β
# [14] = free peptide with 100 nM β, biotinylated peptide 1 on flow cell surface, read-out: IC50 b-peptide 1
# [15] = free peptide with 100 nM β, biotinylated peptide 14 on flow cell surface, read-out: IC50 b-peptide 14
# [16] = biotinylated peptide on surface, read-out: KD
# [17] = biotinylated peptide on flow cell surface, read-out: KD
# T1 sequence (P0A988 whole entry): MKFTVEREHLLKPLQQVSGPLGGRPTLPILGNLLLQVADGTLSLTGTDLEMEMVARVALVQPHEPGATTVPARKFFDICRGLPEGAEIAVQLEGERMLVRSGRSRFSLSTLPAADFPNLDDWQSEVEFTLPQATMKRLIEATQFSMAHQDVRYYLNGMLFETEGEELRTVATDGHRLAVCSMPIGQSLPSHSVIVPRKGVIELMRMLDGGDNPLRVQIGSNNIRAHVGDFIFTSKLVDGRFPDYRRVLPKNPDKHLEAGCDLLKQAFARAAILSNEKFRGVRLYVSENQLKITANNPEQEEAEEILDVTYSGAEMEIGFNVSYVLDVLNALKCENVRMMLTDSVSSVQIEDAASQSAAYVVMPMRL
# Sequence of binding of E. coli δ to E. coli β (P0A988 whole entry): as above
# T2 sequence (P0A988 whole entry): as above
molecule,measurement,setting,value
COC(=O)CC(=O)NOCc1ccc(Cl)c(Cl)c1 [AOC-06454],% Inhibition of binding of E. coli α to E. coli β,[1],"72.2, 75.3%"
COC(=O)CC(=O)NOCc1ccc(Cl)c(Cl)c1 [AOL-06454],inhibition of the binding of E. coli α to E. coli β (CMS library screen),[1],significantly inhibited
CC(C)C[C@H](NC(=O)[C@@H](N)CC(=O)O)C(=O)N[C@@H](Cc1ccccc1)C(=O)O [DLF] (H-Asp-Leu-Phe-OH; N-terminus and C-terminus assumed),Doubling time log phase,[2]; [6],187 Min
same,Increase in lag phase,[2]; [6],120 min
same,effect on growth rate during log phase of B. subtilis,[2]; peptide 1 mg/ml,decreasing the growth rate
same,effect on lag phase of B. subtilis growth,[2]; peptide 1 mg/ml,increasing the lag phase
same,inhibition of growth of B. subtilis,"[2]; peptide 1 mg/ml, OD620 over 16 h",significantly inhibits
same,IC50,"[1]; α:β binding, 50% inhibition, plate inhibition assay",~343 µM
same,IC50,"[3]; δ:β binding, 50% inhibition, plate binding assay",~3050 µM
CC[C@H](C)[C@H](N)C(=O)NCC(=O)N[C@@H](CCC(N)=O)C(=O)N[C@@H](C)C(=O)N[C@@H](CC(=O)O)C(=O)N[C@@H](CCSC)C(=O)N[C@@H](Cc1ccccc1)C(=O)NCC(=O)N[C@H](C(=O)O)C(C)C [DnaE],inhibition of the binding of α to β,[1],significant inhibition
same,inhibition of the binding of δ to β,[3],inhibited
NC(CCC(=O)NC(CSCC(=O)c1ccc(Br)cc1)C(=O)NCC(=O)O)C(=O)O (centres unmarked) [Peptide 131123],IC50,[1]; [7],210 µM
same,inhibition of the binding of α to β,[1],significantly inhibited
same,IC50,"[3]; IC50 δ-binding, Table 21",> 1000 µM
CC(C)(C)OC(=O)NCC(=O)NC(CSC(c1ccccc1)c1ccccc1)C(=O)NCC(=O)O (centres unmarked) [Peptide 338500],IC50,[1]; [7],> 1000 µM
same,IC50,"[3]; IC50 δ-binding, Table 21",146 µM
same,inhibition of the binding of δ to β,[3],significantly inhibited
CC(C)C[C@H](NC(=O)[C@@H](N)CC(=O)O)C(=O)N[C@@H](Cc1ccccc1)C(=O)O [pep16] (H-Asp-Leu-Phe-OH; N-terminus and C-terminus assumed),IC50,[1]; [8],343 µM
same,IC50,[1]; [9],135 µM
same,IC50,[3]; [10],3050 µM
CC(=O)N[C@@H](CC(=O)O)C(=O)N[C@@H](CC(C)C)C(=O)N[C@@H](Cc1ccccc1)C(N)=O [pep18] (Ac-Asp-Leu-Phe-NH2),IC50,[1]; [9],135 µM
EAQLDLFDS [Peptide 112d],IC50,[1],1 µM
same,IC50,[3],3.6 µM
IGQADMAGV [Peptide 4],IC50,[4]; [11],> 10 µM
same,IC50,[4]; [12],> 10 µM
IGQAMSLFGV [Peptide 110a],IC50,[1]; [13],27 µM
same,IC50,"[3]; IC50 δ:β, Table 24",> 100 µM
IGQASMFGV [pep2],IC50,[1],946 µM
same,IC50 δ (inhibition of binding of δ to β),"[3]; Table 17, δ-coated plate, β 1 μg/ml",ni^a
IGQLDLFGV [Peptide 14],IC50,[4]; [14],0.4 µM
same,IC50,[4]; [15],0.5 µM
same,Kd,[5]; [16],0.8 µM
same,Kd,[5]; [17],0.778 µM
same,inhibition of the binding of α to β,[1],significant inhibition
same,inhibition of the binding of δ to β,[3],inhibited
IGQLDLFGV [pep14],IC50,[1]; [8],1.38 µM
same,IC50,[3]; [10],9.16 µM
IGQLDMFGV [Peptide 1],IC50,[4]; [11],0.92 µM
same,IC50,[4]; [12],1.01 µM
same,Kd,"[5]; KD, biotinylated peptide on surface",0.5 µM
same,Kd,"[5]; KD, biotinylated peptide on flow cell surface",0.558 µM
same,inhibition of the binding of α to β,[1],significant inhibition
same,inhibition of the binding of δ to β,[3],inhibited
IGQLDMFGV [pep1],IC50,[1],2.86 µM
same,IC50,[3],13.2 µM
IGQLGLFGV [Peptide 110f],IC50,[1]; [13],17.5 µM
same,IC50,"[3]; IC50 δ:β, Table 24",9.5 µM
IGQLNLFGV [Peptide 110d],IC50,[1]; [13],7.8 µM
same,IC50,"[3]; IC50 δ:β, Table 24",11.5 µM
IGQLSLFGV [Peptide 13],IC50,[4]; [14],0.44 µM
same,IC50,[4]; [15],0.55 µM
same,Kd,[5]; [16],0.778 µM
same,Kd,[5]; [17],0.8 µM
same,IC50,[1]; [8],1.52 µM
same,IC50,[1]; [13],4.9 µM
same,inhibition of the binding of α to β,[1],significant inhibition
same,IC50,[3]; [10],10.2 µM
same,IC50,"[3]; IC50 δ:β, Table 24",5.9 µM
same,inhibition of the binding of δ to β,[3],inhibited
IGQLSLPLGV [Peptide 110c],IC50,[1]; [13],3.4 µM
same,IC50,"[3]; IC50 δ:β, Table 24",3.3 µM
IGQLVLGLGV [Peptide 110b],IC50,[1]; [13],9.3 µM
same,IC50,"[3]; IC50 δ:β, Table 24",6.8 µM
IGQMSLLGV [Peptide 110e],IC50,[1]; [13],9.7 µM
same,IC50,"[3]; IC50 δ:β, Table 24",7 µM
